Measured values: patent US20250082766A1, “TREATMENT OF BRAIN TUMORS BY TARGETING THE CHOLESTEROL PATHWAY IN ASTROCYES” (Ramot at Tel-Aviv University Ltd., priority 2022, published 2025)

Columns and labels:
[1] = test system: GL261 and CT-2A glioma cells; assay: Cell viability assay (Annexin V/DAPI FACS) of glioma cells; assay type: cell-based, mouse; settings: 24-OHC for 72 hours; GL261 and CT-2A glioma cell lines; FIGS. 5J-K
Experimental: FIGS. 5A-N illustrate that astrocyte-derived cholesterol supports glioma survival. (FIGS. 5A-D) Real-time changes in the ECAR (FIGS. 5A-B) and oxygen consumption rate (OCR) (FIGS. 5C-D) of GL261 glioma cells, cultured in media supplemented with full serum (FCS, fetal calf serum) or lipoprotein-deprived serum (LPDS, Lipoprotein-deficient serum) for 18 hours and measured using Seahorse. Oligo, oligomycin; FCCP, carbonyl cyanide4-(trifluoromethoxy) phenylhydrazone; R/A, rotenone plus antimycin A; 2-DG, 2-deoxy-d-glucose. Glycolysis, glycolytic capacity and glycolytic reserve were extracted from the ECAR reading, and basal respiration, adenosine triphosphate (ATP) production, Maximal respiration, and spare respiratory capacity were determined based on OCR. Data are representative of two independent experiments (n=6 technical replicates per experiment). (FIG. 5E) Percentage of cell death of GL261 and CT-2A glioma cells, or primary astrocytes, cultured in FCS or LPDS for 5 days; as determined by Annexin-V assay (n=5 independent experiments). […] Representative flow cytometry plots of Annexin-V/DAPI staining from each group are shown in FIG. 5F and quantification analyses of cholesterol rescue are in FIG. 5G (n=5 biologically independent experiments). (FIGS. 5H-K) Representative images and quantification of LDLR expression (Immunoblot, FIGS. 5H-I) and cell death via FACS analysis of Annexin V/DAPI staining (FIGS. 5J-K) in response to endogenous LXR agonists (24-OHC) or Mock (DMSO) treatment in GL261 and CT-2A cells (n=3 biologically independent experiments). […] (FIGS. 5L-M) Representative flow cytometry plots of murine GL261 and CT-2A glioma cells co-cultured for 5 days with primary mouse astrocytes are shown in FIG. 5L and quantification analyses in FIG. 5M (n=4 biologically independent experiments). (FIG. 5N) quantification analyses of human U87EGFRvIII (U87) glioma cells co-cultured with human primary astrocytes for 5 days (n=3 biologically independent experiments). […]

[2] = test system: LDLR; assay: LDLR expression by immunoblot in glioma cells treated with LXR agonist; assay type: cell-based, mouse; settings: GL261 and CT-2A cells; 24-OHC vs Mock (DMSO); FIGS. 5H-I
Experimental: FIGS. 5A-N illustrate that astrocyte-derived cholesterol supports glioma survival. (FIGS. 5A-D) Real-time changes in the ECAR (FIGS. 5A-B) and oxygen consumption rate (OCR) (FIGS. 5C-D) of GL261 glioma cells, cultured in media supplemented with full serum (FCS, fetal calf serum) or lipoprotein-deprived serum (LPDS, Lipoprotein-deficient serum) for 18 hours and measured using Seahorse. Oligo, oligomycin; FCCP, carbonyl cyanide4-(trifluoromethoxy) phenylhydrazone; R/A, rotenone plus antimycin A; 2-DG, 2-deoxy-d-glucose. Glycolysis, glycolytic capacity and glycolytic reserve were extracted from the ECAR reading, and basal respiration, adenosine triphosphate (ATP) production, Maximal respiration, and spare respiratory capacity were determined based on OCR. […] (FIG. 5E) Percentage of cell death of GL261 and CT-2A glioma cells, or primary astrocytes, cultured in FCS or LPDS for 5 days; as determined by Annexin-V assay (n=5 independent experiments). […] Representative flow cytometry plots of Annexin-V/DAPI staining from each group are shown in FIG. 5F and quantification analyses of cholesterol rescue are in FIG. 5G (n=5 biologically independent experiments). […] (FIG. 5N) quantification analyses of human U87EGFRvIII (U87) glioma cells co-cultured with human primary astrocytes for 5 days (n=3 biologically independent experiments). […]

[3] = test system: glioma; settings: OXPHOS-targeting drugs; cited from earlier work
[4] = test system: tumours with EGFR or IDH1 mutations; settings: patient-derived GBM xenograft mice; cited from earlier work
[5] = molecular target: cholesterol transporter ABCA1 (Homo sapiens, UniProt O95477); settings: cited from earlier work
[6] = test system: GL261 glioma (GBM); assay: Primary GBM model: GL261 intracranially implanted mice treated with Probucol; assay type: in vivo, mouse; settings: summary statement on ABCA1 inhibitors; FIGS. 16A-E
Experimental: (FIG. 16A) Illustration of the experimental design for primary and recurrent GBM models. (FIGS. 16B-D) WT mice were intracranially (IC) implanted with GL261 cells. Tumor-bearing mice were treated daily, starting at day 10, with Probucol (30 mg/kg) or vehicle. (FIG. 16B) Tumor growth curve as determined by IVIS, (FIG. 16C) mice weight loss, and (FIG. 16D) Kaplan-Meier curves assess overall survival. p-value by Two-way ANOVA. Data represent Mean±SEM, 8 mice/group. (FIG. 16E) Illustration of the predicted effects of probucol or glyburide in the different models/disease stages.
For intracranial mouse glioma, mice were anesthetized, positioned in a Stereotaxic Alignment System, and injected with 1.5×10^4 GL261 or CT-2A cells in 2 μl of DMEM. Injections were made to the right frontal lobe, approximately 2.5 mm lateral and 0.1 mm caudal from bregma at a depth of 3 mm. In-vivo bioluminescence imaging, following XenoLight D-luciferin Potassium Salt administration (150 mg/kg) i.p. administration, was determined using IVIS Spectrum system (PerkinElmer). Ganciclovir (GCV, Cymevene, Roche #SAP-10051872; 25 mg/kg), Diphtheria-toxin (DT, Sigma-Aldrich, #D0564; 1100 ng/mice), or vehicle control (PBS) were administered daily following tumor establishment (day 10), as previously described (Mayo, L., et al. Nat Med (2014) 20: 1147-1156). CD8^+ T cell depletion was performed using an anti-CD8 monoclonal antibody ([…], Bioxcell) or an isotype control monoclonal antibody (2A3, Bioxcell), as previously described (Takenaka, M. C. et al. Control of tumor-associated macrophages and T cells in glioblastoma via AHR and CD39. Nat Neurosci 22, 729-740 (2019)). GBM-bearing mice were intraperitoneally injected (0.1 mg/mouse) with an anti-CD8 or an isotype control mAbs, 1 day before, and 7 days after, GCV administration. CD8 T-cell depletion was validated by FACS analysis using a Sony SH800 FACS instrument (Sony Biotechnology). Data analysis was performed using FlowJo v10 (TreeStar, USA). The following reagents were used for analysis: anti-CD45 (1:100; 30-F11, Biolegend, #103106), anti-CD3[…] (1:50; 145-2C11, Biolegend #100335), and anti-CD8a (1:100; 53-6.7, Biolegend, #100765).
To investigate this hypothesis, C57Bl/6 mice are implanted with GFP^+ luciferase-expressing glioma cells (GL261 or CT-2A), using two subtype models—primary or recurrent GBM/brain tumor resection (as illustrated in FIG. 16A), and are treated daily with probucol, glyburide, or vehicle control, with or without a potent statin (e.g., simvastatin as shown in FIG. 15A). The dosage of the different drugs is optimized based on FDA guidelines for conversions from human-accepted dosages (Table 5 below).
In the primary GBM model (pGBM)—10 days after tumor implantation, the mice are treated with cholesterol-lowering drugs (FIG. 16A). In the recurrent GBM model (rGBM), 12-14 days after inoculation of the mice with the tumor cells, the visible tumor(s) are surgically removed, based on GFP expression, under a stereoscope. The mice are then allowed to recover for a week and then are treated with cholesterol-lowering drugs (FIG. 16A). Of note, tumor formation or recurrence is monitored by bioluminescence (BLI) signals from the tumor cells on in-vivo imaging system (IVIS) spectrum and quantified with Living Image software. Mice are monitored for tumor growth, peritumoral brain edema formation, and mouse survival until the experimental endpoint (extreme lethargy or body weight reduction of greater than 20%), or are euthanized seven days after treatment with the cholesterol-lowering drugs to assess tumor burden, angiogenesis, BBB stability, and immunomodulatory activity in-situ. Tumor volume is evaluated in-vivo by determining tumor BLI, and by histopathology analysis postmortem. Peritumoral brain edema is evaluated in-vivo using IVISense™ Edema (Superhance™ 680) fluorescent probe. […]

[7] = test system: murine GL261 glioma cells co-cultured with astrocytes; assay: LPDS-induced glioma cell death in astrocyte-glioma co-cultures with cholesterol-lowering drugs, Annexin-V assay; assay type: cell-based, mouse; settings: cholesterol-deprived (LPDS) astrocyte-GL261 co-cultures, FIGS. 15A-D, n=2
From the text: FIGS. 15A-D illustrate that cholesterol-lowering drugs inhibit astrocyte-mediated rescue of glioma cells from cholesterol deprivation. Analysis of LPDS-induced glioma cell death, co-cultured with astrocytes, in the presence of absence of cholesterol-lowering drugs, by Annexin-V assay. (FIGS. 15A-C) Representative flow cytometry plots of murine GL261 treated with statins (FIG. 15A) or ABCA1 inhibitors Probucol (FIG. 15B), and Glyburide (FIG. 15C), and this quantification analyses (FIG. 15D). n=2 biologically independent experiments.
Moreover, statins and probucol, or glyburide, target different nodes in the cholesterol efflux mechanism (synthesis and extracellular export). Therefore, the present inventor further tests whether the combinations of the two drug groups would have a synergistic effect on glioma viability.

[8] = test system: glioma; settings: experimental glioma mouse models; cited from earlier work
[9] = test system: LDLR; assay: LDLR levels (immunoblot) in GL261 cells treated with conditioned media of PCSK9-transduced astrocytes; assay type: cell-based, mouse; settings: astrocyte-conditioned media (wild type PCSK9-encoding vs empty lentivirus), 24 hours; FIG. 21B
Experimental: FIGS. 21A-D illustrate that PCSK9 overexpression in the cancer microenvironment halts glioma progression. (FIG. 21A) Box plot analysis of TCGA gene expression for PCSK9 in normal (Norm; n=207), GBM patients (n=163), or low-grade glioma (LGG, n=518). n represents the number of patients per group. (FIG. 21B) Astrocytes were transduced with wild type PCSK9-encoding or empty lentivirus, and 24 hours later, the media was collected and transferred to glioma cells. Representative immunoblot analyses comparing LDLR and ACTIN levels in GL261 glioma cells treated with the astrocyte-conditioned media for 24 hours. (n=2 biologically independent experiments). […] PCSK9-encoding or empty lentiviruses were injected into the TME of GL261-bearing mice 9 and 15 days after tumor implantation. (FIG. 21C) Analysis of tumor size, based on tumor bioluminescence. (FIG. 21D) Kaplan-Meier curves assessing overall survival of these groups. Data are representative of two independent experiments with n=6 mice/group. Data are shown as mean±s.e.m. P values were determined by two-sided Student's t-tests (FIG. 21A), two-way ANOVA (FIG. 21C), or Log rank (Mantel-Cox) test (FIG. 21D). *P<0.05, **P<0.01, ***P<0.001.
Cells were lysed in RIPA buffer supplemented with protease inhibitors (Cell Signaling). […] Quantification was done using Image Studio Lite software version 5.2 (LI-COR Biosciences).

Chain of cholesterol transporter ABCA1 (O95477 whole entry): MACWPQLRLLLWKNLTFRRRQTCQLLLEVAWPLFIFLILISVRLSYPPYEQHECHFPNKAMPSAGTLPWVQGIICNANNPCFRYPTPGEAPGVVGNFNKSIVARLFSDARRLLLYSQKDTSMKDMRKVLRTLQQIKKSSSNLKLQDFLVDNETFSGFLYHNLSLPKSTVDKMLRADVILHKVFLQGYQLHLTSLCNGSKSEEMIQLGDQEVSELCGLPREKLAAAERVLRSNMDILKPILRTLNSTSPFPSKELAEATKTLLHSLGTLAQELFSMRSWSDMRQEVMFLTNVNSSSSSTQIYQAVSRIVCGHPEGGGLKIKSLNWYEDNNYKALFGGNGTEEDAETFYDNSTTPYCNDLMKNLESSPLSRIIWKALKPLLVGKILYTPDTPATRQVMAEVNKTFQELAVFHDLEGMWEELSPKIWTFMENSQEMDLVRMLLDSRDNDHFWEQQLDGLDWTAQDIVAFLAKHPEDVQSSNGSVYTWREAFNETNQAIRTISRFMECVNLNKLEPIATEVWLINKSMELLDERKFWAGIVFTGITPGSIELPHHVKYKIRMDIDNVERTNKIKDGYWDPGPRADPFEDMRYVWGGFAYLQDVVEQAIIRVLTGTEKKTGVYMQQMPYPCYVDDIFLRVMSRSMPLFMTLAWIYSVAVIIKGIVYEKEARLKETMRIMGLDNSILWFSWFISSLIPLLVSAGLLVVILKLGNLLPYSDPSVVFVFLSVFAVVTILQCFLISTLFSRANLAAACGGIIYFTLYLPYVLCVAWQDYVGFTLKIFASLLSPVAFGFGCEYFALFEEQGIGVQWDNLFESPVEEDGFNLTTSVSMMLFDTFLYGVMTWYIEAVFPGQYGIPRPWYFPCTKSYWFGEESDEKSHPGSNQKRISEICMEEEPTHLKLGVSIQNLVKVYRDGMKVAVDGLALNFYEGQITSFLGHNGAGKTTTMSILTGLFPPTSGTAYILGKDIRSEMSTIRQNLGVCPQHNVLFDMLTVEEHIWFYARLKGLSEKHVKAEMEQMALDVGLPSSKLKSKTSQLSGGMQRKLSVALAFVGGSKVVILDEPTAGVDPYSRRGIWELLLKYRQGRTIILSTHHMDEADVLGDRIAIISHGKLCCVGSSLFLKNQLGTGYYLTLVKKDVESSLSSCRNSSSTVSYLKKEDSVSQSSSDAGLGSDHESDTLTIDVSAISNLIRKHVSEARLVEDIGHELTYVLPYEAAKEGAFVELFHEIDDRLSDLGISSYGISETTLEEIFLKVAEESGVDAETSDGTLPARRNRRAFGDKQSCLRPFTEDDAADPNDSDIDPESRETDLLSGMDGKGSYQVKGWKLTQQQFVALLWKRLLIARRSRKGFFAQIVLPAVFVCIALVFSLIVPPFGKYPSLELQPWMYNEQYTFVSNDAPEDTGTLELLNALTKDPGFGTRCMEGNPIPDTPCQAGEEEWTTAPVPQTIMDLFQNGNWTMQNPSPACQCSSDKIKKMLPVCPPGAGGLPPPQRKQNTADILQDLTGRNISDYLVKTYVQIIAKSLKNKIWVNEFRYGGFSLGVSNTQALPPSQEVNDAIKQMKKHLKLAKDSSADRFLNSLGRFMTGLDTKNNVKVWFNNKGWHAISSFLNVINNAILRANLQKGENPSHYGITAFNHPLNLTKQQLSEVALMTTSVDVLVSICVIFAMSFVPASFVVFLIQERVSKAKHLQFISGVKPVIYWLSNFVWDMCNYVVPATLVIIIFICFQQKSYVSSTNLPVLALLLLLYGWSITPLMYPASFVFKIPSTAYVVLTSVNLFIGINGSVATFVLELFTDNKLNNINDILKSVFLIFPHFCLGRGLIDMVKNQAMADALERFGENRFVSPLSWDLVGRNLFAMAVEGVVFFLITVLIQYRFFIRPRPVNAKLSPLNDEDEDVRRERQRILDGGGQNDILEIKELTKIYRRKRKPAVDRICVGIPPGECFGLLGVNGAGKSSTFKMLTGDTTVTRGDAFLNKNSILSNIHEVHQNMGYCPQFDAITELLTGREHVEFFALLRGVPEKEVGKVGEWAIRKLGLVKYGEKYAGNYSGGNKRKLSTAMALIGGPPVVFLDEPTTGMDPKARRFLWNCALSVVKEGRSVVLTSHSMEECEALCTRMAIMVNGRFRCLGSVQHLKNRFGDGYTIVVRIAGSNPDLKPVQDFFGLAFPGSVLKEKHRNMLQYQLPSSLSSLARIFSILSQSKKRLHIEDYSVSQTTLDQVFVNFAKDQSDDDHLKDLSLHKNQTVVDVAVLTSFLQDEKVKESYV

Question: With `CC(C)[C@@H](O)CC[C@@H](C)[C@H]1CC[C@H]2[C@@H]3CC=C4C[C@@H](O)CC[C@]4(C)[C@H]3CC[C@]12C` [24-OHC, 24(S)-hydroxycholesterol] as the compound, how does the glioma cell death [1] read?
Answer: dramatic cell death

Question: What about the “LDLR expression (degradation)” value [2] of the same compound?
Answer: dose-dependent LDLR degradation

Question: For `CCc1n(CC(=O)O[C@@H]2C[C@H](C)CC[C@H]2C(C)C)c2ccccc2[n+]1C.[Cl-]` [Gboxin], which “glioma proliferation and cell death” value [3] is on record?
Answer: inhibit glioma proliferation and induce cell death

Question: What about the growth of tumours [4] of the same compound?
Answer: suppresses the growth of tumours

Question: For `COc1ccc(Cl)cc1C(=O)NCCc1ccc(S(=O)(=O)NC(=O)NC2CCCCC2)cc1` [Glyburide], which ABCA1 inhibitor potency [5] is on record?
Answer: potent

Question: What about the “survival of subjects having GBM in-vivo” value [6] of the same compound?
Answer: prolonging survival

Question: What about the “tumor size of subjects having GBM in-vivo” value [6] of the same compound?
Answer: decreasing tumor size

Question: What about the “weight loss of subjects having GBM in-vivo” value [6] of the same compound?
Answer: preventing weight loss

Question: And the “attenuation of the astrocyte-dependent rescue of glioma cells from cholesterol deprivation (glioma cell death), relative efficiency” value [7]?
Answer: the most potent

Question: Which glioma expansion [8] does the source give for `FC(F)(F)c1ccc(CNc2ccc(Cc3c[nH]c4ncc(Cl)cc34)cn2)cn1` [PLX3397] here?
Answer: reduces glioma expansion

Question: Which “levels of LDLR in GL261 glioma cells” value [9] does the source give for “PCSK9: wild type PCSK9 secreted into astrocyte-conditioned medium by lentivirus-transduced astrocytes” here?
Answer: decreased levels of LDLR
